# From ChEMBL document CHEMBL3507680, “University of Dundee, Gates Library screen for HepG2 cell viability”
# Experiment: Human HepG2 cell viability assay in 384 well format
# Format: toxicity, cell-based
# Set-up: dose 125 nL, time 70.5 hour; concentration not given beside the values
# Conditions: HepG2 cells, read-out: Inhibition
row,SMILES,cytotoxicity at 70.5 h [%]
1,CCc1nnc(N2CCN(CCc3ccccc3)C(=O)C2)o1,-2.76
2,COc1ncccc1-c1cc(C(=O)NC2CC2)ccn1,-8.1
3,CC(C)N1CCC(CC(=O)N(C)C(C)c2cncs2)CC1 (stereo unspecified),-15.3
4,CCc1cc(C(=O)NCC2CCN(Cc3cccc(C#N)c3)C2)on1 (stereo unspecified),-1.72
5,O=C(NCC1CCN(Cc2cc3ccccc3[nH]2)C1)c1ccsc1 (stereo unspecified),-9.16
6,COc1cccn(CC(=O)N(C)CCCOc2c(C)cccc2C)c1=O,29.5
7,C[C@@H]1CN(C(=O)CCCn2nnc(-c3ccc(F)cc3)n2)C[C@]1(C)O,22.7
8,CC(C)(C)c1cc(=O)[nH]c(-c2ccccc2CN2CCCCCC2)n1,-3.97
9,Nc1ccnc(N2C[C@@H]3CC[C@H](C2)N(CC2CCC2)C3=O)n1,-3.52
10,Cc1[nH]c(=O)[nH]c(=O)c1CC(=O)N1CCC(Oc2ccc(F)cc2)CC1,-12.2
11,COc1ccc([C@@H]2C[C@H](NC(C)=O)C[C@H](CCc3ccccc3)O2)cn1,-4.78
12,O=c1cc(N2CCCCC2)cnn1CCCn1cccn1,4.12
13,Cc1ccc(CN(C)c2nccc(-c3cn(C)nc3C)n2)o1,-9.08
14,O=C(NCc1cc2n(n1)CCCNC2)C1(c2ccccc2)CCCCC1,0.103
15,Cc1cc(C(F)(F)F)nc(CCNC(C)Cn2ccnc2)n1 (stereo unspecified),-23.4
16,Cc1nc(-c2cn(CCN)nn2)n(-c2ccc3c(c2)CCC3)n1,-4.36
17,CN(Cc1n[nH]c(=O)n1CCc1ccccc1F)S(C)(=O)=O,-1.83
18,Nc1cc(C(=O)NCC2CCN(Cc3cccc(O)c3)C2)ccn1 (stereo unspecified),18.3
19,COCC1CCN(c2nc(C(C)(C)C)nc3c2cnn3C)C1 (stereo unspecified),15.8
20,NC(=O)CN1CC2(CCC1=O)CCN(Cc1ccc(Cl)c(F)c1)CC2,2.58
21,CN1CCC(C)(CN(C)C(=O)c2ccc(CCC(C)(C)O)cc2)C1 (stereo unspecified),-1.78
22,O=C1CCC2(CCOC2)CN1Cc1ccc2nsnc2c1 (stereo unspecified),-3.21
23,O=C(NCCc1ccncc1)c1cccc(S(=O)(=O)NC2CCOC2)c1 (stereo unspecified),5.63

row,SMILES,cytotoxicity at 70.5 h [%]
1,Cc1[nH]nc(CCC(=O)NCC2CCCN(C3CCCC3)C2)c1C (stereo unspecified),-5.73
2,COc1ccc2c(=O)n(CC3CCNC3)ccc2c1OC (stereo unspecified),1.63
3,O=C(c1cnc(O)cn1)N1CCC(CN2CCOCC2)CC1,-13.8
4,CCn1c(CN(C)C)nnc1C1CCN(Cc2cccc(F)c2F)CC1,-1.68
5,COCC(=O)N1CCCC(COc2ccccc2C)C1 (stereo unspecified),12.8
6,O=C(NCCc1cccs1)N1CCCC2(CCC(=O)N(C3CC3)C2)C1 (stereo unspecified),-0.67
7,CCc1cc(N(C)Cc2nonc2C)nc(N2CCOCC2)n1,1.99
8,COc1ncc(CN(C)C(C)c2cccnc2)cn1 (stereo unspecified),9.74
9,Cc1ccccc1-c1noc(-c2ccc(NCC3COCCO3)nc2)n1 (stereo unspecified),-3.64
10,CCOCCn1nc(C)cc1C(=O)N1CC[C@@](O)(COC)C(C)(C)C1,25.9
11,COc1cccc2ncn(C(C)Cn3cccn3)c(=O)c12 (stereo unspecified),-3.99
12,Cc1cncc(C(=O)N2CCNCC2C(=O)Nc2ccc(C)nc2)c1 (stereo unspecified),-3.64
13,CS(=O)(=O)c1ccc(CN2CCCCC2c2cccc(F)c2)cc1 (stereo unspecified),-9.66
14,O=C1CC2(CCN(Cc3ccc(-c4ccn[nH]4)s3)CC2)CN1,-13.8
15,O=C(c1cccc(Cl)c1)N1CCCC(Nc2ccc(F)cc2)C1 (stereo unspecified),2.07
16,Cc1ccsc1CN1CCC(c2cc(C(C)C)n[nH]2)CC1,-3.28
17,CCc1ccc(-c2cn3c(C(=O)N[C@H](C(N)=O)[C@@H](C)O)csc3n2)cc1,15.1
18,CC(=O)C1(c2ccccc2)CCN(C(=O)C2CNCCO2)CC1 (stereo unspecified),-7.25
19,CC(C)CN1CCCC1c1ccc(C(=O)Nc2ccc3[nH]nnc3c2)s1 (stereo unspecified),-0.75
20,CN1[C@H]2CC[C@@H]1CN(C(=O)c1sccc1S(N)(=O)=O)CC2,-4.92
21,COc1cccc(O)c1CN1CCCC(Nc2cccc(F)c2)C1 (stereo unspecified),0.789
22,CCSc1ncc(CN2CC[C@@](O)(COC)C(C)(C)C2)cn1,-18.2
23,COCCn1ccnc1C1CCCN(C(=O)c2ccccc2C#N)C1 (stereo unspecified),0.955

row,SMILES,cytotoxicity at 70.5 h [%]
1,Cc1noc(C)c1CCCNC(=O)Nc1ccc2c(c1)CC(=O)N2,-8.94
2,CCCc1cncnc1N1CCCC2(CCC(=O)N(C3CCCC3)C2)C1 (stereo unspecified),-9.78
3,CSCC(=O)N1CCCN(c2ccncc2C)CC1,-8.19
4,Cc1ccc(C(=O)N2CCC3(CC2)c2ccccc2[C@@H](N)[C@@H]3O)cc1F,-10.1
5,O=C1N(C2CCOCC2)CCCC12CCN(c1ncccc1Cl)C2 (stereo unspecified),-14.5
6,Cc1ccn(CC(=O)N2CC[C@@H](c3ccc4ccccc4c3)[C@H](O)C2)n1,-10.1
7,Cc1nc[nH]c1C(=O)N1CC[C@@H](NC(=O)c2ccccn2)[C@H](O)C1,-1.79
8,CNc1cc(C(=O)N(C)Cc2cc(-c3cccs3)n[nH]2)ccn1,0.513
9,CCc1cc(C(=O)NCC2CCN(Cc3cccc(C)n3)C2)on1 (stereo unspecified),-1.06
10,FC(F)(F)c1ccnc(N2CCCN(Cc3ccccn3)CC2)n1,11.3
11,Cc1ccc(O)c(C(=O)N2C[C@@H](C(=O)O)[C@H](c3ccccc3)C2)c1,0.313
12,CN(CCCC1CCCO1)S(=O)(=O)NCc1ccccc1 (stereo unspecified),10.8
13,CCCc1cc(N2CCC(NCCc3ccc(O)cc3)CC2)nc(C)n1,-4.92
14,CCNC(=O)[C@@H]1C[C@H](N)CN1C(=O)c1cccc(CCC(C)(C)O)c1,-5.42
15,O=C(c1cncc(N2CCCC3(CCNCC3)CC2)n1)N1CCCCC1,8.06
16,Cn1ncnc1-c1ccnc(N2CCC(C(O)c3cccs3)CC2)n1 (stereo unspecified),-10.9
17,N#CC1(c2ccccc2)CCN(C(=O)C2CCCN(CC(N)=O)C2)CC1 (stereo unspecified),1.9
18,CCC1CN(C(=O)c2cncc(C)c2)CCC(=O)N1Cc1ccccc1 (stereo unspecified),-3.22
19,O=C(NCCC1CN(C2CCCC2)CCO1)c1c[nH]c(=O)[nH]c1=O (stereo unspecified),-12.3
20,c1cc(-c2cn[nH]c2)ccc1CN1CCCCC1,13.1
21,CC(C)=CCC1(CO)CCCN(Cc2nccs2)C1 (stereo unspecified),-9.67
22,CCCSCC(=O)N1CCCC(c2nccn2Cc2ccncc2)C1 (stereo unspecified),25.6
23,COC(=O)c1cc(OCC2CCC2)cc(C(=O)N[C@@H](C)CO)c1,-22.2

row,SMILES,cytotoxicity at 70.5 h [%]
1,CCN(CC1CCCN(CCc2cccc(OC)c2)C1)C(=O)CN(C)C (stereo unspecified),-0.489
2,Clc1cccc(-c2cccc(N3CCC(NC4CCOCC4)CC3)c2)c1,5.92
3,CCc1nnc(CNC(=O)CCN2CCN(c3cccc(C)c3)CC2)s1,-4.25
4,Cc1ccc(CSc2nc(N)cc(NCC(=O)N3CCNCC3)n2)cc1,-4.01
5,O=C(COc1ccc2cccnc2c1)N1CCN[C@H]2CS(=O)(=O)C[C@H]21,18.5
6,CN(CCO)c1nc(-c2ccccn2)nc2c1CCNC2,-0.45
7,Cc1ccccc1-n1c(C)cc(=O)[nH]c1=O,26.3
8,CSCc1noc(CN2CC(Cc3ccccc3)CC2=O)n1 (stereo unspecified),-13
9,CC(C)CN1CC2(CCN(C(=O)c3cn4cccnc4n3)CC2)CC1=O,-17.9
10,Cc1ccc(CN2CCN(C(=O)c3ccc(CO)cc3)C(C)C2=O)cc1 (stereo unspecified),-17.6
11,CCc1nnc(CN2CCC3(CC2)Nc2ccccc2NC3=O)o1,19.8
12,Cc1nc(C(C)C)ncc1C(=O)N1CCCC(N2CCCC2)C1 (stereo unspecified),6.69
13,c1cc(C2CCN(c3ncnc4c3CCNCC4)CC2)ccn1,-10.9
14,CSc1ccccc1C(=O)N1CCN(C)C2(CCC(=O)N(C)CC2)C1 (stereo unspecified),-14.6
15,Cc1nc(C2CCN(C[C@H](C)CO)CC2)cc(N2CCOCC2)n1,-0.547
16,O=C(NCc1ccc2nonc2c1)C1CCN(C(=O)C2CCC2)CC1,-6.22
17,Cc1nn(C)cc1-c1ccnc(N2CCCN(CC(C)C)CC2)n1,-6.83
18,CN1CCc2[nH]cnc2C12CCN(Cc1ccc(S(C)(=O)=O)cc1)CC2,-7.39
19,c1ccc(-c2cccc(-c3ccn(CCN4CCCCC4)n3)c2)nc1,13.3
20,COCC[C@]1(O)CCN(CC(=O)NCc2ccccc2C)C[C@H]1C,-2.23
21,NC(=O)C1CCCN(C(=O)c2ccc(-n3ccnc3)cc2)C1 (stereo unspecified),-5.88
22,CCC[C@H]1CN(Cc2cc(C)no2)C[C@@H]1NC(=O)C1(COC)CCC1,-10
23,Cc1nc2ccccc2n1Cc1cc(C(=O)N(C)C2CCOC2)n[nH]1 (stereo unspecified),-12.8

row,SMILES,cytotoxicity at 70.5 h [%]
1,CC(C)NC(=O)c1nc(Cn2c(C(F)(F)F)nc3ccccc32)no1,14.5
2,CC(C)N1CC2(CCC1=O)CCN(C(=O)c1cccc(F)c1F)CC2,-5.47
3,COCCNc1nc2c(c(N3CCn4nc(C)cc4C3)n1)CCNCC2,-8.96
4,CN(C)c1ncc2c(n1)CCCC2NC(=O)c1ccsc1 (stereo unspecified),-3.74
5,Cc1cc(C)nc(CNC(=O)C(c2cccnc2)N2CCOCC2)n1 (stereo unspecified),-6.63
6,CN(Cc1ccc(OCC(=O)N2CCOCC2)cc1)S(C)(=O)=O,2.5
7,CC(C)[C@H]1COC(=O)N1CC(=O)N1CCN(C(=O)c2ccco2)CC1,8.43
8,CC(C)c1cc(C(=O)N2C[C@@H](C)[C@](O)(C3CC3)C2)[nH]n1,-5.59
9,COc1ccc(Cl)cc1C(=O)N1C[C@@H](NC(=O)N(C)C)[C@H](C(C)C)C1,-10.5
10,COC(=O)N1CCN(Cc2ccccc2Cl)CC1,-1.89
11,O=C(c1cc(Br)ccc1Cl)N1CCN(Cc2ccco2)CC1,-4.63
12,Cc1ccc(-c2c(C(=O)NC3CCN(C)CC3)csc2C)cc1,-9.95
13,CCc1ccc(C(=O)N2CCN(Cc3ccc(F)cc3)CC2)s1,4.63
14,CNc1cc(C)nc(N2CCC3(CC2)[C@H](O)C[C@@H]3OC)n1,-2.45
15,O=C(Cc1ccccc1F)NCCN1CCOCC1,-6.95
16,Cc1ccc(CN2CCN(C(=O)c3ccc(Br)o3)CC2)cc1,27.9
17,COc1ccc(-c2nc(CN(C)Cc3nncn3C)c(C)o2)c(C)c1C,5.19
18,COCCC1CCN([C@@H]2c3ccccc3C3(CCNCC3)[C@H]2O)CC1,-3.9
19,NCCc1n[nH]c(=O)n1-c1cccc2ccccc12,-4.93
